For one experiment, the target named is T1, α1 -Adrenoceptor (Oryctolagus cuniculus, UniProt O02824).
T1 construct: smooth muscle strips were prepared from prostate and proximal urethra; from tissue; host or cells: rabbit prostate and proximal urethra smooth muscle strips
T1 sequence (O02824 1-466): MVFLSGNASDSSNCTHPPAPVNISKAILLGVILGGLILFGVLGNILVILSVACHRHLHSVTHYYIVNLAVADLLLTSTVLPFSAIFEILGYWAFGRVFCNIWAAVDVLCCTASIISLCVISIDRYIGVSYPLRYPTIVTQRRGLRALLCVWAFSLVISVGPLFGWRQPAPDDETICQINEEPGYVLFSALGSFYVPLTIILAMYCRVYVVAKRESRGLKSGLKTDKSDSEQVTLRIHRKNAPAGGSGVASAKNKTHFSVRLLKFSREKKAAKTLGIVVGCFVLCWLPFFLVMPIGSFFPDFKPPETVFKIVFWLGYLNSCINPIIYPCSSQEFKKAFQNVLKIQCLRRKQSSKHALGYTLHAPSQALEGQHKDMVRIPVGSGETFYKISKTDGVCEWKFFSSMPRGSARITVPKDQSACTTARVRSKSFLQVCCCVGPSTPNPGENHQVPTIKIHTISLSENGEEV
Nature of the experiment: α1-Adrenoceptor blocking action (antagonism of phenylephrine-induced contraction of isolated urethra and prostate strips). Type of experiment: cell-based, rabbit (male albino). Here is the method:
α1 -Adrenoceptor Blocking Action
Male albino rabbits were sacrificed by exsanguination, and the prostate and urethra were isolated. After removal of fat and connective tissues, tranverse smooth muscle strips were prepared from prostate and proximal urethra. Each segmental strip was suspended in an organ bath at 37° C. in a Krebs-Henseleit solution which had been bubbled with 95% O2 and 5% CO2. The isometric contraction under a resting tension of 1 g was recorded with a force-displacement transducer(TB-651T, Nihon Koden) on a recoder(RECTI HORIZ 8K, Nihon Sanei).
After an equilibration of tissues at least 60 minutes, contractions were elicited by repeated dose of phenylephrine until constant contraction responses were obtained. Subsequently, the dose-response curves were obtained by increasing concentrations of phenylephrine(10^-7 -×10^-4 M). After the resting period for 60 minutes, tissues were incubated with test drugs for 30 minutes and dose-response curves were constructed as described above.
In all cases, 10^-5 M propranolol(β-adrenoceptor antagonist) was administered 10 minutes before the contraction by phenylephrine.
The composition of the Krebs-Henseleit solution was as follows(mM): NaCl 118.4, KCl 4.7, MgSO4 1.2, CaCl2 2.5, NaHCO3 25.0, glucose 11.1, KH2 PO4 1.2.
The potency of each test drug was expressed as the pA2 value(negative logarithm of the antagonist dissociation constant).

The target in experiment [1] is Testosterone 5α-reductase. Nature of the experiment: Testosterone 5α-reductase inhibitory action (nuclear fraction of ventral prostate). Type of experiment: biochemical, rat (male Wistar). As to conditions: rat ventral prostate nuclear fraction; [4-^14 C]-testosterone, NADPH; 60 min at 37° C. As to the method: Testosterone 5α-Reductase Inhibitory Action
Male Wistar rats (age: 9-10 weeks old) were anesthetized with ethyl ether and ventral prostates were dissected. The isolated prostates were weighed and homogenized with ultradisperser(Yamato, Japan) and teflon-glass homogenizer in 3 tissue volumes of 50 mM Tris-HCl buffer(pH 7.2) containing 0.25M sucrose and 1 mM dithiothreitol. The homogenates were filtered with gauze and centrifuged at 3,000 rpm for 10 minutes at 4° C. The pellets were resuspended in same buffer as described above and the resultant suspension was used as the nuclear fraction.
Testosterone 5α-reductase activity was carried out described as follows. The reaction mixture contained […] of nuclear fraction 0.1 ml of 5 mM NADPH, 0.01 ml of test drug dissolved in dimethylsulfoxide and 0.78ml of Tris-HCl buffer(pH 7.0). The reaction was started by addition of 0.01 ml of 150 μM [4-^14 C]-testosterone and incubated for 60 minutes at 37° C. After incubation, reaction was stopped by adding 4 ml of ethyl acetate. 3 ml of ethyl acetate was evaporated under nitrogen to dryness and dissolved in 40 μl of ethyl acetate. 10 μl of ethyl acetate was applied to silica gel thin layer plate(HF254, Merck) and the plate was developed in ethyl acetate and cyclohexane(1:1). The plate was subjected to autoradiography and the radioactivity profiles were determined by scraping the spots of testosterone, dihydrotestosterone and other metabolites and counting in a scintillation counter. Testosterone 5a -reductase activity was calculated for the total radioactivity and radioactivities of dihydrotestosterone and other metabolites. The inhibitory activity of test drug was expressed as IC50 (nM).

[2] abbreviates: isolated rabbit prostate strips, phenylephrine contraction, 30 min incubation with drug, 10^-5 M propranolol, pA2 = negative logarithm of antagonist dissociation constant, read-out: Prostate (pA2) (converted).
[3] abbreviates: isolated rabbit proximal urethra strips, phenylephrine contraction, 30 min incubation with drug, 10^-5 M propranolol, pA2 = negative logarithm of antagonist dissociation constant, read-out: Urethra (pA2) (converted).

Values joined by “and” are separate entries in the source; they are usually repeats but may differ in a detail not shown here. Identical values can stand only once. Like-named read-outs stand apart in the source and are kept apart here.

Take `COc1cc(C(=O)c2cn(CCCC(=O)O)c3ccccc23)ccc1OC(CCN1CCN(c2ccccc2OC)CC1)c1ccc(C)cc1` (stereo not drawn) [Example 1, Potassium 4-{3-{3-methoxy-4-{1-(4-methylphenyl)-3-[4-(2-methoxyphenyl)piperazin-1-yl]propoxy}benzoyl}indol-1-yl} butanoate]: the results for the Kb at α1 -Adrenoceptor (setting [2]) and on α1 -Adrenoceptor (setting [3]) were 87.1 nM and 380 nM, respectively. This molecule also yielded an IC50 in experiment [1] of 3.7 nM.
Turning to `COc1ccccc1N1CCN(CCCOc2ccc(C(=O)c3cn(CCCC(=O)O)c4ccccc34)cc2)CC1` [Example 3, Potassium 4-{3-{4-{3-[4-(2-methoxyphenyl)piperazin-1-yl]propoxy}benzoyl}indol-1-yl}butanoate], on α1 -Adrenoceptor, the Kb was 115 nM and 75.9 nM.
For the molecule `CC(C)Oc1ccccc1N1CCN(CCC(Oc2ccc(C(=O)c3cn(CCCC(=O)O)c4ccccc34)cc2)c2ccccc2)CC1` (stereo not drawn) [Example 5, 4-{3-{4-{1-Phenyl-3-[4-(2-isopropoxyphenyl)piperazin-1-yl]propoxy}benzoyl}indol-1-yl}butanoic acid], the Kb at α1 -Adrenoceptor was 1100 nM and 141 nM.
For `Cc1ccc(C(CCN2CCN(c3ccccc3OC(C)C)CC2)Oc2ccc(C(=O)c3cn(CCCC(=O)O)c4ccccc34)cc2)cc1` (stereo not drawn) [Example 8, Potassium 4-{3-{4-{1-(4-methylphenyl)-3-[4-(2-isopropoxyphenyl)piperazin-1-yl]propoxy}benzoyl}indol-1-yl}butanoate], inhibition in experiment [1] was half-maximal at 0.26 nM (IC50).
On the same count and under the same terms, then `COc1cc(C(=O)c2cn(CCCC(=O)O)c3ccccc23)ccc1OC(CCN1CCN(c2ccccc2OC(C)C)CC1)c1ccc(C)cc1` (stereo not drawn) [Example 11, Potassium 4-{3-{3-methoxy-4-{1-(4-methylphenyl)-3-[4-(2-isopropoxyphenyl)piperazin-1-yl]propoxy}benzoyl}indol-1-yl}butanoate], with 3.1 nM.
Same read-out and setting: then `COc1cc(C(=O)c2cn(CCCC(=O)O)c3ccccc23)ccc1OC(CCN1CCN(c2ccccc2OC)CC1)c1ccc(CC(C)C)cc1` (stereo not drawn) [Example 13, Potassium 4-{3-{3-methoxy-4-{1-(4-isobutylphenyl)-3-[4-(2-methoxyphenyl)piperazin-1-yl]propoxy}benzoyl}indol-1-yl}butanoate], with 1.4 nM.
As to `COc1cc(C(=O)c2cn(CCCC(=O)O)c3ccccc23)ccc1OC(CCN1CCN(c2ccccc2OC)CC1)c1ccccc1` (stereo not drawn) [Example 14, Potassium 4-{3-{3-methoxy-4-{1-phenyl-3-[4-(2-methoxyphenyl)piperazin-1-yl]propoxy}benzoyl}indol-1-yl}butanoate], at α1 -Adrenoceptor, the Kb is 389 nM and 72.4 nM.
Take `CCOc1ccccc1N1CCN(CCC(Oc2ccc(C(=O)c3cn(CCCC(=O)O)c4ccccc34)cc2OC)c2ccccc2)CC1` (stereo not drawn) [Example 15, Potassium 4-{3-{3-methoxy-4-{1-phenyl-3-[4-(2-ethoxyphenyl)piperazin-1-yl]propoxy}benzoyl}indol-1-yl}butanoate]: the Kb at α1 -Adrenoceptor is 251 nM and 50.1 nM. In experiment [1], this molecule registered a concentration for half-maximal inhibition (IC50) of 7.9 nM.
For the molecule `COc1cc(C(=O)c2cn(CCCC(=O)O)c3ccccc23)ccc1OC(CCN1CCN(c2ccccc2OC(C)C)CC1)c1ccccc1` (stereo not drawn) [Example 16, Potassium 4-{3-{3-methoxy-4-{1-phenyl-3-[4-(2-isopropoxyphenyl)piperazin-1-yl]propoxy}benzoyl}indol-1-yl}butanoate], the Kb on α1 -Adrenoceptor is 155 nM and 85.1 nM.
As to `COc1ccc(C(CCN2CCN(c3ccccc3OC)CC2)Oc2ccc(C(=O)c3cn(CCCC(=O)O)c4ccccc34)cc2)cc1` (stereo not drawn) [Example 20, Potassium 4-{3-{4-{1-(4-methoxyphenyl)-3-[4-(2-methoxyphenyl)piperazin-1-yl]propoxy}benzoyl}indol-1-yl}butanoate], on α1 -Adrenoceptor, the Kb is 692 nM and 562 nM.
In experiment [1], `COc1ccccc1N1CCN(CCC(Oc2ccc(C(=O)c3cn(CCCC(=O)O)c4ccccc34)c(C)c2C)c2ccc(C)cc2)CC1` (stereo not drawn) [Example 22, 4-{3-{2,3-Dimethyl-4-{1-(4-methylphenyl)-3-[4-(2-methoxyphenyl)piperazin-1-yl]propoxy}benzoyl}indol-1-yl}butanoic acid] gave a half-maximal inhibitory concentration (IC50) of 3.7 nM.
With `COc1ccccc1N1CCN(CCCOc2ccc(C(=O)c3cn(CCCC(=O)O)c4ccccc34)cc2OCc2ccccc2)CC1` [Example 24, 4-{3-{3-Benzyloxy-4-{3-[4-(2-methoxyphenyl)piperazin-1-yl]propoxy}benzoyl}indol-1-yl}butanoic acid], the Kb on α1 -Adrenoceptor was 631 nM and 100 nM.
The molecule `COc1ccccc1N1CCN(CCC(Oc2ccc(C(=O)c3cn(CCCC(=O)O)c4ccccc34)cc2OCc2ccccc2)c2ccc(C)cc2)CC1` (stereo not drawn) [Example 26, 4-{3-{3-Benzyloxy-4-{1-(4-methylphenyl)-3-[4-(2-methoxyphenyl)piperazin-1-yl]propoxy}benzoyl}indol-1-yl}butanoic acid] displayed a half-maximal inhibitory concentration (IC50) in experiment [1] of 5 nM.
Regarding `COc1ccccc1N1CCN(CCC(Oc2cccc(C(=O)c3cn(CCCC(=O)O)c4ccccc34)c2)c2ccc(C)cc2)CC1` (stereo not drawn) [Example 28, Potassium 4-{3-{3-{1-(4-methylphenyl)-3-[4-(2-methoxyphenyl)piperazin-1-yl]propoxy}benzoyl}indol-1-yl}butanoate], the Kb at α1 -Adrenoceptor is 166 nM and 102 nM.
With `COc1cc(C(=O)c2cn(CCCC(=O)O)c3ccccc23)ccc1O[C@@H](CCN1CCN(c2ccccc2OC)CC1)c1ccccc1` [Example 35, Potassium S-4-{3-{3-methoxy-4-{1-phenyl-3-[4-(2-methoxyphenyl)piperazin-1-yl]propoxy}benzoyl}indol-1-yl}butanoate], the Kb at α1 -Adrenoceptor (setting [2]) was 27.5 nM; on α1 -Adrenoceptor (setting [3]), 64.6 nM. The IC50 in experiment [1] is 6.8 nM.
Consider `COc1ccccc1N1CCN(CCCOc2cc(C(=O)c3cn(CCCC(=O)O)c4ccccc34)ccc2OCc2ccc(C)cc2)CC1` [Example 37, Potassium 4-{3-{4-(4-methylphenylmethoxy)-3-{3-[4-(2-methoxyphenyl)piperazin-1-yl]propoxy}benzoyl}indol-1-yl}butanoate], for which, at α1 -Adrenoceptor, the Kb was 120 nM and 19.1 nM. Besides, the IC50 in experiment [1] came out at 3.5 nM.
As for `COc1ccccc1N1CCN(CCCOc2cc(C(=O)c3cn(CCCC(=O)O)c4ccccc34)ccc2OCc2ccccc2)CC1` [Example 38, Potassium 4-{3-{4-benzyloxy-3-{3-[4-(2-methoxyphenyl)piperazin-1-yl]propoxy}benzoyl}indol-1-yl}butanoate], the Kb on α1 -Adrenoceptor was 36.3 nM and 16.6 nM.
`COc1ccccc1N1CCN(CCCOc2cc(C(=O)c3cn(CCCC(=O)O)c4ccccc34)ccc2OCc2ccc(F)cc2)CC1` [Example 42, Potassium 4-{3-{4-(4-fluorophenylmethoxy)-3-{3-[4-(2-methoxyphenyl)piperazin-1-yl]propoxy}benzoyl}indol-1-yl}butanoate]: at α1 -Adrenoceptor, the Kb was 398 nM and 70.8 nM.
As to `CCOc1ccccc1N1CCN(CCCOc2cc(C(=O)c3cn(CCCC(=O)O)c4ccccc34)ccc2OCc2ccc(C)cc2)CC1` [Example 45, Potassium 4-{3-{4-(4-methylphenylmethoxy)-3-{3-[4-(2-ethoxyphenyl)piperazin-1-yl]propoxy}benzoyl}indol-1-yl}butanoate], the Kb at α1 -Adrenoceptor is 56.2 nM and 34.7 nM. In experiment [1], this molecule registered an IC50 of 1.5 nM.
Molecule `COc1ccccc1N1CCN(CCCCOc2cc(C(=O)c3cn(CCCC(=O)O)c4ccccc34)ccc2OCc2ccc(C)cc2)CC1` [Example 46, Potassium 4-{3-{3-{4-[4-(2-methoxyphenyl)piperazin-1-yl]butoxy}-4-(4-methylphenylmethoxy)benzoyl}indol-1-yl}butanoate] yielded an IC50 in experiment [1] of 1.5 nM.

The IC50 is the concentration needed to halve the response being measured. High values mean lower potency, low ones higher potency.

The values are drawn from patent publication US5760040A, “Indole derivative for treating overproduction of dihydrotestosterone” (Zeria Pharmaceutical Co., Ltd., priority 1994, dated 1998).
